System: HIV in the HTLV-1 transformed cell line MT-4
Assay: organism not typed
Assay type: cell-based
Conditions: MT4, 96 h, MT-4 cells; luciferase/cell titer glo readout after 96 hours; 10 point dose response

Row | SMILES | IC50 [nM]
1 | Cc1ccc(-c2c(C)c3c(c(C)c2[C@H](OC(C)(C)C)C(=O)O)CN(C(=O)c2cc(F)cc(C(=O)O)c2)C3)cc1 [Example 267, (S)-3-(5-(tert-butoxy(carboxy)methyl)-4,7-dimethyl-6-(p-tolyl)isoindoline-2-carbonyl)-5-fluorobenzoic acid] | 3460
2 | Cc1ccc(-c2c(C)c3c(c(C)c2[C@H](OC(C)(C)C)C(=O)O)CN(C(=O)c2cccnc2)C3)cc1 [Example 268, (S)-2-(tert-butoxy)-2-(4,7-dimethyl-2-nicotinoyl-6-(p-tolyl)isoindolin-5-yl)acetic acid] | 14
3 | Cc1ccc(-c2c(C)c3c(c(C)c2[C@H](OC(C)(C)C)C(=O)O)CN(C(=O)c2cncs2)C3)cc1 [Example 269, (S)-2-(tert-butoxy)-2-(4,7-dimethyl-2-(thiazole-5-carbonyl)-6-(p-tolyl)isoindolin-5-yl)acetic acid] | 116
4 | Cc1ccc(-c2c(C)c3c(c(C)c2[C@H](OC(C)(C)C)C(=O)O)CN(C(=O)c2ccc(Cl)cc2)C3)cc1 [Example 270, (S)-2-(tert-butoxy)-2-(2-(4-chlorobenzoyl)-4,7-dimethyl-6-(p-tolyl)isoindolin-5-yl)acetic acid] | 4
5 | Cc1ccc(-c2c(C)c3c(c(C)c2[C@H](OC(C)(C)C)C(=O)O)CN(C(=O)c2cc(Cl)cc(Cl)c2)C3)cc1 [Example 271, (S)-2-(tert-butoxy)-2-(2-(3,5-dichlorobenzoyl)-4,7-dimethyl-6-(p-tolyl)isoindolin-5-yl)acetic acid] | 8
6 | Cc1ccc(-c2c(C)c3c(c(C)c2[C@H](OC(C)(C)C)C(=O)O)CN(C(=O)c2cocn2)C3)cc1 [Example 272, (S)-2-(tert-butoxy)-2-(4,7-dimethyl-2-(oxazole-4-carbonyl)-6-(p-tolyl)isoindolin-5-yl)acetic acid] | 86
7 | Cc1ccc(-c2c(C)c3c(c(C)c2[C@H](OC(C)(C)C)C(=O)O)CN(C(=O)c2ccccn2)C3)cc1 [Example 273, (S)-2-(tert-butoxy)-2-(4,7-dimethyl-2-picolinoyl-6-(p-tolyl)isoindolin-5-yl)acetic acid] | 4
8 | Cc1ccc(-c2c(C)c3c(c(C)c2[C@H](OC(C)(C)C)C(=O)O)CN(C(=O)c2cnc(-c4ccccc4)o2)C3)cc1 [Example 274, (S)-2-(tert-butoxy)-2-(4,7-dimethyl-2-(2-phenyloxazole-5-carbonyl)-6-(p-tolyl)isoindolin-5-yl)acetic acid] | 297
9 | Cc1ccc(-c2c(C)c3c(c(C)c2[C@H](OC(C)(C)C)C(=O)O)CN(C(=O)c2cccc4c2OCO4)C3)cc1 [Example 275, (S)-2-(2-(benzo[d][1,3]dioxole-4-carbonyl)-4,7-dimethyl-6-(p-tolyl)isoindolin-5-yl)-2-(tert-butoxy)acetic acid] | 5
10 | Cc1ccc(-c2c(C)c3c(c(C)c2[C@H](OC(C)(C)C)C(=O)O)CN(C(=O)c2ccc(Cl)c(Cl)c2)C3)cc1 [Example 276, (S)-2-(tert-butoxy)-2-(2-(3,4-dichlorobenzoyl)-4,7-dimethyl-6-(p-tolyl)isoindolin-5-yl)acetic acid] | 16
11 | Cc1ccc(-c2c(C)c3c(c(C)c2[C@H](OC(C)(C)C)C(=O)O)CN(C(=O)c2cc(F)c(Cl)c(Cl)c2)C3)cc1 [Example 277, (S)-2-(tert-butoxy)-2-(2-(3,4-dichloro-5-fluorobenzoyl)-4,7-dimethyl-6-(p-tolyl)isoindolin-5-yl)acetic acid] | 14
12 | Cc1ccc(-c2c(C)c3c(c(C)c2[C@H](OC(C)(C)C)C(=O)O)CN(C(=O)c2cc(C)c(F)c(F)c2)C3)cc1 [Example 278, (S)-2-(tert-butoxy)-2-(2-(3,4-difluoro-5-methylbenzoyl)-4,7-dimethyl-6-(p-tolyl)isoindolin-5-yl)acetic acid] | 5
13 | Cc1ccc(-c2c(C)c3c(c(C)c2[C@H](OC(C)(C)C)C(=O)O)CN(C(=O)c2cc(F)c(F)c(F)c2)C3)cc1 [Example 279, (S)-2-(tert-butoxy)-2-(4,7-dimethyl-6-(p-tolyl)-2-(3,4,5-trifluorobenzoyl)isoindolin-5-yl)acetic acid] | 4
14 | Cc1ccc(-c2c(C)c3c(c(C)c2[C@H](OC(C)(C)C)C(=O)O)CN(C(=O)c2cc(F)c(F)c(Cl)c2)C3)cc1 [Example 280, (S)-2-(tert-butoxy)-2-(2-(3-chloro-4,5-difluorobenzoyl)-4,7-dimethyl-6-(p-tolyl)isoindolin-5-yl)acetic acid] | 8
15 | Cc1ccc(-c2c(C)c3c(c(C)c2[C@H](OC(C)(C)C)C(=O)O)CN(C(=O)c2cc(Cl)c(F)c(Cl)c2)C3)cc1 [Example 281, (S)-2-(tert-butoxy)-2-(2-(3,5-dichloro-4-fluorobenzoyl)-4,7-dimethyl-6-(p-tolyl)isoindolin-5-yl)acetic acid] | 17
16 | Cc1ccc(-c2c(C)c3c(c(C)c2[C@H](OC(C)(C)C)C(=O)O)CN(C(=O)c2cc(F)c(Cl)c(F)c2)C3)cc1 [Example 282, (S)-2-(tert-butoxy)-2-(2-(4-chloro-3,5-difluorobenzoyl)-4,7-dimethyl-6-(p-tolyl)isoindolin-5-yl)acetic acid] | 7
17 | Cc1ccc(-c2c(C)c3c(c(C)c2[C@H](OC(C)(C)C)C(=O)O)CN(C(=O)c2ccc(C)nc2)C3)cc1 [Example 283, (S)-2-(tert-butoxy)-2-(4,7-dimethyl-2-(6-methylnicotinoyl)-6-(p-tolyl)isoindolin-5-yl)acetic acid] | 13
18 | COc1cccc(C(=O)N2Cc3c(C)c(-c4ccc(C)cc4)c([C@H](OC(C)(C)C)C(=O)O)c(C)c3C2)c1OC [Example 284, (S)-2-(tert-butoxy)-2-(2-(2,3-dimethoxybenzoyl)-4,7-dimethyl-6-(p-tolyl)isoindolin-5-yl)acetic acid] | 48
19 | Cc1ccc(-c2c(C)c3c(c(C)c2[C@H](OC(C)(C)C)C(=O)O)CN(C(=O)OCC(C)(C)C)C3)cc1 [Example 287, (S)-2-(tert-butoxy)-2-(4,7-dimethyl-2-((neopentyloxy)carbonyl)-6-(p-tolyl)isoindolin-5-yl)acetic acid] | 5
20 | Cc1ccc(-c2c(C)c3c(c(C)c2[C@H](OC(C)(C)C)C(=O)O)CN(C(=S)c2cccc(F)c2)C3)cc1 [Example 288, (S)-2-(tert-butoxy)-2-(2-(3-fluorophenylcarbonothioyl)-4,7-dimethyl-6-(p-tolyl)isoindolin-5-yl)acetic acid] | 15
21 | Cc1ccc(-c2c(C)c3c(c(C)c2[C@H](OC(C)(C)C)C(=O)O)CN(S(=O)(=O)N2CCC(F)(F)C2)C3)cc1 [Example 289, (S)-2-(tert-butoxy)-2-(2-((3,3-difluoropyrrolidin-1-yl)sulfonyl)-4,7-dimethyl-6-(p-tolyl)isoindolin-5-yl)acetic acid] | 14
22 | Cc1ccc(-c2c(C)c3c(c(C)c2[C@H](OC(C)(C)C)C(=O)O)CN(C(=O)NCc2ncccn2)C3)cc1 [Example 290, (S)-2-(tert-butoxy)-2-(4,7-dimethyl-2-((pyrimidin-2-ylmethyl)carbamoyl)-6-(p-tolyl)isoindolin-5-yl)acetic acid] | 2560
23 | Cc1ccc(-c2c(C)c3c(c(C)c2[C@H](OC(C)(C)C)C(=O)O)CN(C(=O)N2CCC(C)(C)C2)C3)cc1 [Example 291, (S)-2-(tert-butoxy)-2-(2-(3,3-dimethylpyrrolidine-1-carbonyl)-4,7-dimethyl-6-(p-tolyl)isoindolin-5-yl)acetic acid] | 5

Reference: US10112899B2 (ViiV HEALTHCARE UK LIMITED, priority 2014, dated 2018)
